These results are taken from patent US12342819B2, “Elasnin, a bacteriostatic agent that has potent antibiofilm activities against both mono- and multi-species biofilm” (The Hong Kong University of Science and Technology, priority 2019, dated 2025).

Values after ≈ are worked out from the molar mass of the structure shown. Values joined by “and” are separate entries in the source; they are usually repeats but may differ in a detail not shown here. Identical values can stand only once.

As usually defined, the MBC is the lowest tested concentration that kills the bacteria rather than only halting them. The low end stands for greater bactericidal potency, the high end for weaker bactericidal potency. Broadly, the MIC is the lowest concentration that inhibits growth of the organism. Low readings indicate a more susceptible organism, high ones a less susceptible organism.

One experiment deals with chymotrypsin. The conditions noted are these: cited from earlier work.
In experiment [1] the test system is MRSA ATCC 43300. Put plainly: Minimum bactericidal concentration (MBC). In kind it is cell-based, Methicillin-resistant Staphylococcus aureus. How it is done:
(§1) Minimum inhibitory concentrations (MICs) and minimum bactericidal concentrations (MBCs) were determined with MRSA ATCC 43300 and E. coli ATCC 25922, according to the Clinical and Laboratory Standards Institute guideline CLSI M100 (2018). Approximately 10^5 CFU/ml overnight culture of the bacteria strains were inoculated into MHB and treated with series concentrations of Elasnin (or crude extracts and antibiotics). […] MBCs were measured following the MIC assay by plating 1 ml suitable diluted culture broth from each well on Mueller Hinton Agar (MHA) plate. The MBCs were defined as lowest concentration at which antimicrobial agent caused >99.9% reduction of cells. Each assay was done in duplicates and repeated 3 times.

Another experiment concerns MRSA biofilms. Put plainly: CLSM observation with biofilm cell and matrix staining. It counts as cell-based, Methicillin-resistant Staphylococcus aureus. The conditions noted are these: elasnin 4 μg/mL. How it is done: Biofilms were grown on glass cover slides as described for the MBIC and MBEC assays. Treated biofilms were then rinsed twice with 1×PBS and stained with FilmTracer™ FM® 1-43 green biofilm cell stain and FilmTracer™ SYPRO® Ruby Biofilm Matrix Stain at room temperature for 30 min in the dark. Leica Sp8 Confocal Microscope was employed to observe cells and matrix in the biofilm at 488 nm.

The test system of experiment [2] is MRSA ATCC 43300. The experiment is described as follows: MBIC assay (biofilm inhibition, MTT). It counts as cell-based, Methicillin-resistant Staphylococcus aureus. The conditions noted are these: minimum concentration inhibiting 90% biofilm formation. How it is done: (§2) Minimum biofilm inhibitory concentrations (MBICs) and minimum biofilm eradication concentrations (MBECs) were determined as previously described (30, 31).
(§3) An overnight culture of the testing strains was diluted into approximately 10^7 with LB and 0.5% glucose and treated with various concentrations of Elasnin in 96-well cell culture plates. Culture broth was then incubated at 37° C. for 24 hours and rinsed twice by 1×PBS to remove non-adhering and planktonic cells. After the wash, MTT staining assay was conducted to measure viable cells in the biofilm since the MTT can react with activated succinate dehydrogenase in viable cell mitochondria to form blue violet formazan, which can be read at 570 nm after being dissolved in DMSO.

In another experiment the test system is pancreatic elastase. Particulars: cited from earlier work.
The test system of experiment [3] is P. aeruginosa PAO1. Put plainly: MBEC assay. It counts as cell-based. The conditions noted are these: viability of biofilm cells constant as concentration increased. How it is done: as §2
(§4) The ability of Elasnin to eradicate pre-formed mature biofilm was tested through a MBEC assay. Similar to MBIC assay, an overnight culture of testing strains was incubated for 24 hours in 96-well cell culture plates but without adding Elasnin to form biofilm. Formed biofilm was then rinsed twice by 1×PBS and challenged with a series concentration of Elasnin (diluted with LB and 0.5% glucose) and incubated for another 24 hours at 37° C. After incubation, each well was rinsed twice by 1×PBS and MTT assay was conducted to measure viable cells in remaining biofilm.

The subject of experiment [4] is S. aureus B04. The experiment is described as follows: MBEC assay. Particulars: S. aureus B04, 50% eradication of mature biofilm. It counts as cell-based. How it is done:
as §2, §4

In experiment [5] the test system is Bacillus subtilis 168. The experiment is described as follows: MBEC assay. In kind it is cell-based. The conditions noted are these: 50% eradication of mature biofilm. How it is done: as §2, §4
For experiment [6], the system named is E. coli ATCC 25922. Put plainly: MBEC assay. The conditions noted are these: viability of biofilm cells constant as concentration increased. It counts as cell-based. How it is done: as §2, §4
For experiment [7], the system named is S. aureus ATCC 25923. Put plainly: MBEC assay. In kind it is cell-based. The conditions noted are these: S. aureus ATCC 25923, 50% eradication of mature biofilm. How it is done: as §2, §4
The test system of experiment [8] is P. aeruginosa PAO1. Put plainly: MBIC assay. It counts as cell-based. Particulars: even at 100 μg/ml. How it is done: as §2, §3
Experiment [9] has as its system S. aureus B04. The experiment is described as follows: MBIC assay. In kind it is cell-based. Particulars: S. aureus B04, 90% reduction of biofilm formation. How it is done: as §2, §3
In experiment [10] the test system is Bacillus subtilis 168. Put plainly: MBIC assay. In kind it is cell-based. How it is done:
as §2, §3

For experiment [11], the system named is E. coli ATCC 25922. Put plainly: MBIC assay. It counts as cell-based. Particulars: even at 100 μg/ml. How it is done: as §2, §3
Experiment [12] deals with S. aureus ATCC 25923. Put plainly: MBIC assay. It counts as cell-based. Particulars: S. aureus ATCC 25923, 90% reduction of biofilm formation. How it is done:
as §2, §3

The target in experiment [13] is T1, human granulocyte elastase (Homo sapiens, UniProt P08246).
T1 sequence (P08246 30-267): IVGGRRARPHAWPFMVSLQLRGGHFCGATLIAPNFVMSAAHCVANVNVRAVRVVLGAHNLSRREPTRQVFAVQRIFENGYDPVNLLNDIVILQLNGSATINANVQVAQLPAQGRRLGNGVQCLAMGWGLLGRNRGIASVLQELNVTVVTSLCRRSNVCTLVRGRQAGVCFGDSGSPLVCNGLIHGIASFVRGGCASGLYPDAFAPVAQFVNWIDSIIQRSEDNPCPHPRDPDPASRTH
The conditions noted are these: cited from earlier work.

The test system of experiment [14] is MRSA ATCC 43300. Put plainly: MBEC assay (eradication of pre-formed biofilm, MTT). The conditions noted are these: concentration eradicating 50% of mature biofilm within 24 hours. It counts as cell-based, Methicillin-resistant Staphylococcus aureus. How it is done:
as §2, §4

In a further experiment the test system is trypsin. The conditions noted are these: cited from earlier work.
Experiment [15] has as its system MRSA ATCC 43300. Put plainly: Concentration response curve study (CFU counting of planktonic cells). In kind it is cell-based, Methicillin-resistant Staphylococcus aureus. Particulars: 24 hours; vancomycin 0 to 50 μg/ml, elasnin 0 to 100 μg/ml. How it is done: MRSA ATCC 43300 was used for concentration response curve study. 4×10^5 CFU/ml of exponentially growing MRSA was inoculated into MHB with various concentrations of elasnin and vancomycin in 15 ml falcon tubes. The tubes were incubated at 37° C. on a rotary shaker for 24 hours; 1 ml of culture broth in each tube was diluted with MHB and 1 ml diluted bacteria was plated on MHA plates for the CFU counting. Each concentration was plated on two plates and the experiments were repeated 3-times.

The subject of experiment [16] is MRSA ATCC 43300. The experiment is described as follows: Minimum inhibitory concentration (MIC), CLSI M100. It counts as cell-based, Methicillin-resistant Staphylococcus aureus. Particulars: Staphylococcus aureus, 24 h. How it is done:
as §1

Where [17] appears, read: biofilm eradication assay, pre-formed biofilm, 18 hr.
Setting [18] is: biofilm inhibition assay, 24 hr, vs untreated.

Turning to `CCCCCC(=O)C(CCCC)c1oc(=O)c(CCCC)c(O)c1CCCC` (stereo not drawn) [elasnin], the activity against chymotrypsin result in the experiment on chymotrypsin was “almost no activities”. Also, the MBC entry in the experiment with MRSA ATCC 43300 [1] (>99.9% reduction of cells) is listed as “above 100 μg/ml”. Besides, the reduction in cells entry in the experiment on MRSA biofilms (setting [17]) is reported as “over 50%”. Besides, the reduction in matrices in the experiment with MRSA biofilms (setting [17]) was greater than 70%. The “decrease in density of cells” value in the experiment with MRSA biofilms (setting [18]) was “around 80%”. In the experiment on MRSA biofilms (setting [18]), the “decrease in density of matrices” value is roughly 35%. Further, the MBIC lay in the range of 1.25 to 2.5 µg/mL with MRSA ATCC 43300 [2]; 1.25 to 2.5 µg/mL in the experiment with S. aureus B04 [9]; 2.5 to 5 µg/mL in the experiment on Bacillus subtilis 168 [10] (Bacillus subtilis 168, 90% reduction of biofilm formation); 1.25 to 2.5 µg/mL in the experiment with S. aureus ATCC 25923 [12]. Besides, in the experiment on pancreatic elastase, the “activity against pancreatic elastase” value is “almost no activities”. The “activity in MBEC assay” value with P. aeruginosa PAO1 [3] and in the experiment on E. coli ATCC 25922 [6] was “No activity” throughout. Also, the MBEC in the experiment with S. aureus B04 [4] is 2.5 to 5 µg/mL; in the experiment with Bacillus subtilis 168 [5] it was 1.25 to 2.5 µg/mL; in the experiment with S. aureus ATCC 25923 [7] it was 0.625 to 1.25 µg/mL; in the experiment with MRSA ATCC 43300 [14], 1.25 µg/mL and 1.25 to 2.5 µg/mL. The “development of biofilm formation” value in the experiment on P. aeruginosa PAO1 [8] and in the experiment with E. coli ATCC 25922 [11] was “not influenced” throughout. The biofilms inhibited entry with Bacillus subtilis 168 [10] (Bacillus subtilis 168, elasnin 1.25 μg/ml) was “at least 80%”. Besides, the “inhibition of human granulocyte elastase” value in [13] is “inhibits”. The activity against trypsin result in the experiment with trypsin is reported as “almost no activities”. Further, the “cell density versus concentration (concentration-response curve)” value in the experiment on MRSA ATCC 43300 [15] is “cell densities did not significantly differ”.
For the compound `CN[C@H](CC(C)C)C(=O)N[C@H]1C(=O)N[C@@H](CC(N)=O)C(=O)N[C@H]2C(=O)N[C@H]3C(=O)N[C@H](C(=O)N[C@H](C(=O)O)c4cc(O)cc(O)c4-c4cc3ccc4O)[C@H](O)c3ccc(c(Cl)c3)Oc3cc2cc(c3O[C@@H]2O[C@H](CO)[C@@H](O)[C@H](O)[C@H]2O[C@H]2C[C@](C)(N)[C@H](O)[C@H](C)O2)Oc2ccc(cc2Cl)[C@H]1O` [vancomycin, reference compound], the MBC in the experiment on MRSA ATCC 43300 [1] (Staphylococcus aureus) fell in the range of 20 to 50 µg/mL (≈ 13.8 to 34.5 µM). Further, the MIC against MRSA ATCC 43300 [16] was 0.5 to 2 µg/mL (≈ 0.345 to 1.38 µM). The MBEC entry in the experiment on MRSA ATCC 43300 [14] is “More than 10 μg/ml”. Moreover, in the experiment on MRSA ATCC 43300 [15], the “cell density versus concentration (concentration-response curve)” value is on record as “sharp decrease in cell density as the concentration increased”.
